Consider 15 compounds from patent US3946018A, “1,4-Dihydro-3 (2H)-isoquinolinone derivatives” (priority 1973, dated 1976).

Data set [1] in a line: acute oral toxicity (LD50) in mice. The settings on record: mouse, in vivo. As to the method:
(§1) The LD5o values of the compounds were determined on groups each consisting of 8 mice. The results were evaluated according to the method of Lichtfield and Wilcoxon (J. Pharmacol. exp. Therap. 96, 99 / 1949/).

In data set [2] the test system is white mice. Briefly: inhibition of pentamethylenetetrazole-provoked spasm. The note with it: Mus musculus, read-out: ED50 pentamethylenetetrazole. In kind it is in vivo, white mice of both sexes. As to the method: The inhibiting effect on pentamethylenetetrazoleprovoked spasm was tested on groups each consisting of 12 individually caged, randomized mice, by the method of Orloff (Proc. Soc. Exp. Biol. Med. N.Y., 70, 254 /1949/). The pentamethylenetetrazole spasm threshold was determined by the slow (0.05 ml./10 sec.) intravenous administration of a 0.5 % pentamethylenetetrazole solution, and the influence of the compounds on the spasm threshold was examined. In every case, the tonic extension of the hind limbs was regarded as spasm.

Another data set in a line: in vivo. The note with it: mouse, po. As to the method:
(§2) The pharmacological properties of the new compounds were tested on white mice of both sexes, weighing 16 to 24 g. The new compounds were administered orally through a metal stomach tube, in the form of a 5 per cent suspension in a medium containing Tween 80 as suspending agent.
The paralyzing effect of the compounds was tested on groups each consisting of 8 mice, by the rotarod test. The ED5o rotarod value corresponds to the dosis, which, one hour after the administration, causes 50 per cent of the test animals to fall down from the rotarod within 3 minutes. The neurotoxic activity was evaluated according to the method of Lichtfield and Wilcoxon.
(§3) For comparison various known and widely used pharmacons, namely phenobarbital (5-ethyl-5-phenylbarbituric acid), phenytoin (5,5-diphenylhydantoine) and trimethadion (3,5,5-trimethyl-2,4-oxazolidine-dione) were also tested under the same conditions.

The test system of data set [3] is white mice. Briefly: Maximum Electroshock Seizure Test (electroshock-inhibiting effect). In kind it is in vivo, white mice of both sexes. The note with it: for Protective Index: ED50 rotarod divided by ED50 ES; for ED50: Mus musculus, read-out: ED50 ES. As to the method: as §2
The electroshock-inhibiting effect of the compounds was examined on groups each consisting of 10, individually caged mice. The anticonvulsive activity was tested by the "Maximum Electroshock Seizure Test" of Swinyard, et al. (Epilepsia 10, 107 /1969/), and the inhibition of the tonic extension of the hind limbs was evaluated. […] The results were evaluated according to the method of Lichtfield and Wilcoxon. The electroshock was provoked using corneal electrodes, under the following parameters: 50 Hz, 0.3 sec. 3 msec; the current intensity varied between 28 and 34 mA (a current intensity was maintained that was sufficient to provoke spasm in each of the 10 animals).
The activities of the compounds with protecting effect against electroshock were compared by the so-called protective index, which was calculated by dividing the individual ED5o rotarod values with the corresponding ED5o ES values. The greater this ratio, the more remote the dosis protecting against electroshock is from the dosis causing muscle relaxation.
as §3

Data set [4] concerns white mice. Briefly: acute oral toxicity (LD50) in mice. The note with it: mouse, in vivo, po. How it is done: as §1
The mark [5] stands for this setting: oral, mice, 3 h., 0.5 % pentamethylenetetrazole slow i.v., tonic extension of the hind limbs regarded as spasm.
The mark [6] stands for this setting: oral, mice, 3 h., inhibition of tonic extension of the hind limbs, protection of 50 % of animals.

Where a name gives a salt, the structure may show the parent alone. Read-outs that look alike come from different tables or passages of the source.

On to `CCCNCC(=O)Nc1ccc(C2NC(=O)Cc3ccccc32)cc1` (centres unmarked) [Example 5, 1,4-Dihydro-1-(4'-/propylaminoacetyl/-amino-phenyl)-3(2H)-isoquinolinone], for which, in data set [1] (po), the 50% lethal dose (LD50) was ~2000 mg/kg. Besides, the ED50 in the data set on white mice [2] (setting [5]) was found to be 50 mg/kg; in the data set on white mice [3] (setting [6]), 21 mg/kg. Further, the TD50 in “in vivo” came to 490 mg/kg. Further, the “Protective Index” value with white mice [3] was found to be 24.
For `CCN(CC)CC(=O)Nc1ccc(C2NC(=O)C(C)(C)c3ccccc32)cc1` (centres unmarked) [Example 16, 1,4-Dihydro-1-(4'-/N,N-diethylaminoacetyl/-amino-phenyl)-4,4-dimethyl-3(2H)-isoquinolinone], the LD50 in data set [1] (po) is ~1600 mg/kg. For the same compound, the TD50 in “in vivo” is ~1300 mg/kg. The “Protective Index” value with white mice [3] is given as ~15. The ED50 in the data set with white mice [3] (setting [6]) is ~88 mg/kg.
The compound `CCCNCC(=O)Nc1ccc(C2NC(=O)C(C)(C)c3ccccc32)cc1` (centres unmarked) [Example 6, 1,4-Dihydro-4,4-dimethyl-1-(4'-/propylaminoacetyl/-amino-phenyl)3-(2H)-isoquinolinone] returned an LD50 in data set [1] (po) of 1600 mg/kg. The ED50 in the data set on white mice [2] (setting [5]) was 100 mg/kg; in the data set on white mice [3] (setting [6]), 32 mg/kg. The compound further registered a TD50 in the data set “in vivo” of 435 mg/kg. Further, the “Protective Index” value in the data set on white mice [3] worked out at 13.6.
With `CCC1(c2ccccc2)C(=O)NC(=O)NC1=O` [5-ethyl-5-phenyl-barbituric acid, 5-ethyl-5-phenylbarbituric acid, reference compound], in data set [1] (oral, mice, read-out: LD50), the LD50 is 180 mg/kg. For the same compound, the ED50 in the data set on white mice [2] (po, 3 h) turned out to be 15 mg/kg; with white mice [3] (po, 3 h), 15 mg/kg. This compound also came in with a TD50 in “in vivo” (in vivo) of 38 mg/kg. Further, the “Protective Index” value in the data set on white mice [3] came out at 2.5.
`CCCNCC(=O)Nc1ccc(C2NC(=O)C(C(C)C)c3ccccc32)cc1` (centres unmarked) [Example 8, 1,4-Dihydro-4-isopropyl-1-(4'-/propylaminoacetyl/-amino-phenyl)-3(2H)-isoquinolinone] gave an LD50 in data set [1] (po) of 600 to 800 mg/kg. Also, the ED50 with white mice [2] (setting [5]) was 50 mg/kg; in the data set with white mice [3] (setting [6]) it was ~20 mg/kg. Further, the TD50 in the data set “in vivo” was ~50 mg/kg. Moreover, the “Protective Index” value in the data set with white mice [3] is given as ~2.5.
On to `CCNCC(=O)Nc1ccc(C2NC(=O)Cc3ccccc32)cc1` (centres unmarked) [Example 9, 1,4-Dihydro-1-(4'-/ethylaminoacetyl/-amino-phenyl)-3(2H)-isoquinolinone], for which, in the data set with white mice [4], the LD50 is > 1600 mg/kg. Moreover, the 50% effective dose (ED50) with white mice [2] (setting [5]) came out at 50 mg/kg; in the data set with white mice [3] (setting [6]), 10.2 mg/kg. In “in vivo”, this compound had a TD50 of 520 mg/kg. In addition, the “Protective Index” value in the data set on white mice [3] is recorded as 51.
For `CCCNCC(=O)Nc1ccc(C2NC(=O)C(C)c3ccccc32)cc1` (centres unmarked) [Example 7, 1,4-Dihydro-4-methyl-1-(4'-/propylaminoacetyl/-aminophenyl)-3(2H)-isoquinolinone] the same measures were > 1600 mg/kg, 50 mg/kg, 22 mg/kg, 340 mg/kg and 15.4.
`CN1C(=O)OC(C)(C)C1=O` [3,5,5-trimethyl-2,4-oxazolidine-dione, reference compound]: the LD50 in data set [1] (oral, mice, read-out: LD50) was 1750 mg/kg. For the same compound, the ED50 in the data set on white mice [2] (setting [5]) came to 62 mg/kg; in the data set with white mice [3] (setting [6]) it was 440 mg/kg. The TD50 in “in vivo” stood at 340 mg/kg. Further, the “Protective Index” value in the data set on white mice [3] worked out at 0.77.
`CC(C)NCC(=O)Nc1ccc(C2NC(=O)Cc3ccccc32)cc1` (centres unmarked) [Example 12, 1,4-Dihydro-1-(4'-/isopropylaminoacetyl/-aminophenyl)-3(2H)-isoquinolinone]: the LD50 in the data set with white mice [4] is > 1000 mg/kg. In addition, the ED50 in the data set on white mice [2] (setting [5]) came out at 100 mg/kg; in the data set with white mice [3] (setting [6]) it was 10.5 mg/kg. The compound also came in with a TD50 in the data set “in vivo” of 270 mg/kg. For the same compound, the “Protective Index” value in the data set on white mice [3] is 26.
Consider `CNCC(=O)Nc1ccc(C2NC(=O)C(C)(C)c3ccccc32)cc1` (centres unmarked) [Example 13, 1,4-Dihydro-4,4-dimethyl-1-(4'-/methylaminoacetyl/-amino-phenyl)-3(2H)-isoquinolinone maleate], for which, in the data set on white mice [4], the 50% lethal dose (LD50) is > 2000 mg/kg. Besides, in “in vivo”, the TD50 is ~800 mg/kg. Besides, the “Protective Index” value with white mice [3] was ~32. For the same compound, the ED50 in the data set on white mice [3] (setting [6]) turned out to be 25 mg/kg.
The like results for `CC(C)NCC(=O)Nc1ccc(C2NC(=O)C(C)(C)c3ccccc32)cc1` (centres unmarked) [Example 14, 1,4-Dihydro-4,4-dimethyl-1-(4'-/isopropylaminoacetyl/-amino-phenyl)-3(2H)-isoqinolinone] were, in that order, > 2000 mg/kg, ~1600 mg/kg, ~59 and 27 mg/kg.
Regarding `O=C1NC(=O)C(c2ccccc2)(c2ccccc2)N1` [5,5-diphenyl-hidantoine, 5,5-diphenylhydantoine, reference compound], the LD50 in data set [1] (oral, mice, read-out: LD50) turned out to be 300 mg/kg. Further, the ED50 in the data set with white mice [2] (setting [5]) came out at 25 mg/kg; with white mice [3] (setting [6]) it was 10 mg/kg. The compound further gave a TD50 in the data set “in vivo” of 10 mg/kg. Moreover, in the data set on white mice [3], the “Protective Index” value turned out to be 1.0.
`CCCCNCC(=O)Nc1ccc(C2NC(=O)C(C)(C)c3ccccc32)cc1` (centres unmarked) [Example 15, 1,4-Dihydro-1-(4'-/butylaminoacetyl/-amino-phenyl)-4,4-dimethyl-3(2H)-isoquinolinone]: in data set [1] (po), the LD50 was > 1000 mg/kg. Moreover, the TD50 in the data set “in vivo” is ~300 mg/kg. For the same compound, in the data set with white mice [3], the “Protective Index” value is on record as ~10. Also, the ED50 in the data set with white mice [3] (setting [6]) is 29 mg/kg.
For the compound `CCNCC(=O)Nc1ccc(C2NC(=O)C(C)(C)c3ccccc32)cc1` (centres unmarked) [Example 10, 1,4-Dihydro-1-(4'-/ethylaminoacetyl/-amino-phenyl)-4,4-dimethyl-3(2H)-isoquinolinone], the median lethal dose (LD50) in the data set on white mice [4] is > 2000 mg/kg. Moreover, the figures for the ED50 in the data set with white mice [2] (setting [5]) and in the data set with white mice [3] (setting [6]) were 50 mg/kg and > 300 mg/kg, respectively. This compound also registered a TD50 in the data set “in vivo” of 760 mg/kg. Further, the “Protective Index” value with white mice [3] is ~2.
For the compound `CNCC(=O)Nc1ccc(C2NC(=O)Cc3ccccc32)cc1` (centres unmarked) [Example 11, 1,4-Dihdryo-1-(4'-/methylaminoacetyl/-amino-phenyl)-3(2H)-isoquinolinone], the LD50 in data set [1] (po) was ~600 mg/kg. Also, the ED50 in the data set with white mice [2] (setting [5]) turned out to be 50 mg/kg; in the data set on white mice [3] (setting [6]), 22 mg/kg. For the same compound, in “in vivo”, the TD50 stood at 270 mg/kg. Further, in the data set with white mice [3], the “Protective Index” value was ~12.
